This note sets out measurements from patent publication US20260234187A1, “ANTIMICROBIAL PEPTIDES” (MATERIAS S.R.L., priority 2020, published 2026).

The test system of data set [1] is E. coli. Description: bactericidal activity at 15 μM, CFU versus control. The format is cell-based. The protocol: (§1) The bactericidal activity of further AMP peptides according to the invention, in particular of the RiLK31 peptide (RLRWVKIWKK, SEQ ID NO:31) and the RiLK3 peptide (RLRWVRIWRR, SEQ ID NO:3), was tested. The bactericidal activity was expressed as a percentage of viable cells in terms of CFU (Colony Forming Units) in a bacterial sample exposed to each peptide compared to those in a control bacterial sample in the absence of the peptide. All tests were carried out with the same peptide concentration, corresponding to 15 μM.

Data set [2] has as its system Listeria. The experiment in a line: bactericidal activity at 15 μM, CFU versus control. The format is cell-based. As for the experimental part: as §1
Data set [3] deals with Staphylococcus. Description: bactericidal activity at 15 μM, CFU versus control. The format is cell-based. As for the experimental part:
as §1

Data set [4] concerns Salmonella. The experiment in a line: bactericidal activity at 15 μM, CFU versus control. In kind it is cell-based. As for the experimental part: as §1
The subject of data set [5] is S. typhimurium. In kind it is cell-based, Salmonella typhimurium. The conditions noted are these: S. typhimurium. As for the experimental part:
(§2) The evaluation of the Minimum Bactericidal Concentration (MBC), i.e., the lowest concentration of antimicrobial agent capable of 99.9% inhibition of bacterial growth on plates, was carried out as described in Bílikova et al, (2015, Peptides 68:190-196). […] It should be noted that the peptide object of the present invention is more powerful and efficient than the peptide IDR-1018-K6 (described in patent application WO2019012158) against the pathogenic bacteria L. monocytogenes and S. typhimurium, with bactericidal concentration values 4-fold and 7-fold lower, respectively, compared to those shown by IDR-1018-K6.

Data set [6] has as its system E. coli. In kind it is cell-based, Escherichia coli. As for the experimental part:
as §2

Data set [7] is classed as physicochemical. As for the experimental part:
The structural and conformational characterization of the RiLK1 peptide was assessed by investigating its secondary structure by ^1H NMR spectroscopy in H2O and in a micellar solution of SDS at a concentration of 150 mM to mimic the condition of the bacterial cell membrane.
In fact, the representative structures of the RiLK1 peptide in water show a random orientation of both polar and hydrophobic amino acid side chains.
The helical structure appears well defined and stabilized by hydrophobic interactions of amino acid residues located on the opposite face. It is important to note that, in this arrangement, all the charged side chains are iso-oriented and well prone to interact with the negatively charged surface of the SDS micelles. Furthermore, the two tryptophan residues within the RiLK1 sequence are located at an optimal distance for their mutual stacking, thus contributing to the stabilization of the helix. It should be pointed out that the ^1H NMR spectra of the peptide IDR-1018-K6 (described in patent application WO2019012158) could not be acquired in the presence of micellar solutions of SDS since it is not soluble at the concentrations required to carry out these assays. […] Therefore, it is possible to assert that the NMR analysis in the presence of SDS has shown that the RiLK1 peptide of the present invention is capable of adopting the helix conformation, whereas the IDR-1018-K6 peptide (object of patent WO2019012158) has poor solubility and a heterogeneous system not suitable for NMR structural characterization (Table 2).

For data set [8], the system named is L. monocytogenes (LM2). In kind it is cell-based, Listeria monocytogenes. The protocol:
as §2

Data set [9] relates to Listeria monocytogenes LM2. The format is cell-based. The conditions noted are these: LM2, 6 h. As for the experimental part: The bactericidal activity of the RiLK1 peptide was assessed against both Gram positive (Listeria monocytogenes LM2 and Staphilococcus aureus) and Gram negative (Salmonella typhimurium and Escherichia coli) pathogenic bacteria. The assessment of the concentration of the two peptides capable of inhibiting 50% of bacterial growth (IC50) was performed by the broth microdilution assay as described in Wang H X and Ng TB (2003, Peptides 24:969-972). The standard deviations and the IC50s for triplicate incubations of each plate were determined using GraphPad Prism version 6.00 (Graph-Pad Software, La Jolla California USA). All experimental conditions investigated used the plate count method to estimate the bactericidal activity of the peptides. Specifically, the numbers of colonies grown on agar plates seeded with the bacterial suspensions in the absence or presence of the individual peptide dilutions were counted and compared. The standard deviations of the triplicate incubations of each plate were determined using statistical software. A control stock suspension was prepared in which 10^3 CFUs of L. monocytogenes were inoculated in 10 ml of Half Fraser Broth and serial dilutions (100 to 0.01 μM) of the suspension were performed. […]

Where two headings read alike, the source gives them in different places. Where no end group is shown, it is not given here.

Consider RLKWVRIWRR-NH2 [RiLK1, RLKWVRIWRR], for which the bactericidal activity in data set [1] was 100%; in [2] it was 99.5%; in [3], 96.9%^; in data set [4] it was 100%. Besides, the “bactericidal concentration lower compared to IDR-1018-K6” value in data set [5] was determined as 7 fold; in [8] (L. monocytogenes), 4 fold. The MBC in data set [6] and in data set [8] (L. monocytogenes (LM2)) was 2 µM each time. The solubility was 1000 µM in data set [7] and 900 µM in [7] (pH 4.4). The substance further gave an IC50 in data set [9] of 460 nM.
